Active and inactive are the calls of the source. The rule behind the calls is not given here.
How the values were obtained:
[1] = Cytotoxicity against human EKVX cells at 10 uM after 48 hrs by sulforhodamine B assay relative to control; type: functional
[2] = test system: OVCAR-8; experiment: Cytotoxicity against human OVCAR8 cells at 10 uM after 48 hrs by sulforhodamine B assay relative to control; type: functional
[3] = test system: NCI-H23; experiment: Cytotoxicity against human NCI-H23 cells at 10 uM after 48 hrs by sulforhodamine B assay relative to control; type: functional
[4] = test system: DU-145; experiment: Cytotoxicity against human DU145 cells at 10 uM after 48 hrs by sulforhodamine B assay relative to control; type: functional
[5] = test system: CCRF-CEM; experiment: Cytotoxicity against human CCRF-CEM cells at 10 uM after 48 hrs by sulforhodamine B assay relative to control; type: functional
[6] = test system: MCF7; experiment: Cytotoxicity against human MCF7 cells at 10 uM after 48 hrs by sulforhodamine B assay relative to control; type: functional
[7] = test system: HCT-15; experiment: Cytotoxicity against human HCT15 cells at 10 uM after 48 hrs by sulforhodamine B assay relative to control; type: functional
[8] = test system: K562; experiment: Cytotoxicity against human K562 cells at 10 uM after 48 hrs by sulforhodamine B assay relative to control; type: functional
[9] = test system: NCI-H226; experiment: Cytotoxicity against human NCI-H226 cells at 10 uM after 48 hrs by sulforhodamine B assay relative to control; type: functional
[10] = test system: OVCAR-5; experiment: Cytotoxicity against human OVCAR5 cells at 10 uM after 48 hrs by sulforhodamine B assay relative to control; type: functional
[11] = test system: RPMI-8226; experiment: Cytotoxicity against human RPMI8226 cells at 10 uM after 48 hrs by sulforhodamine B assay relative to control; type: functional
[12] = test system: 786-0; experiment: Cytotoxicity against human 786-0 cells at 10 uM after 48 hrs by sulforhodamine B assay relative to control; type: functional
[13] = test system: HCC 2998; experiment: Cytotoxicity against human HCC2998 cells at 10 uM after 48 hrs by sulforhodamine B assay relative to control; type: functional
[14] = test system: PC-3; experiment: Cytotoxicity against human PC3 cells after 48 hrs by sulforhodamine B assay; type: functional, cell-based; details: PC-3, 48 h
[15] = test system: SN12C; experiment: Cytotoxicity against human SN12C cells at 10 uM after 48 hrs by sulforhodamine B assay relative to control; type: functional
[16] = test system: U-251; experiment: Cytotoxicity against human U251 cells at 10 uM after 48 hrs by sulforhodamine B assay relative to control; type: functional
[17] = test system: M14; experiment: Cytotoxicity against human M14 cells at 10 uM after 48 hrs by sulforhodamine B assay relative to control; type: functional
[18] = species on record: Homo sapiens; experiment: Inhibition of telomerase (unknown origin) at 10 uM TRAP assay
[19] = test system: HOP-62; experiment: Cytotoxicity against human HOP62 cells at 10 uM after 48 hrs by sulforhodamine B assay relative to control; type: functional
[20] = test system: SF-539; experiment: Cytotoxicity against human SF539 cells at 10 uM after 48 hrs by sulforhodamine B assay relative to control; type: functional
[21] = test system: BT-549; experiment: Cytotoxicity against human BT549 cells at 10 uM after 48 hrs by sulforhodamine B assay relative to control; type: functional
[22] = test system: COLO 205; experiment: Cytotoxicity against human COLO205 cells at 10 uM after 48 hrs by sulforhodamine B assay relative to control; type: functional
[23] = test system: T47D; experiment: Cytotoxicity against human T47D cells at 10 uM after 48 hrs by sulforhodamine B assay relative to control; type: functional
[24] = test system: MOLT-4; experiment: Cytotoxicity against human MOLT4 cells at 10 uM after 48 hrs by sulforhodamine B assay relative to control; type: functional
[25] = test system: ACHN; experiment: Cytotoxicity against human ACHN cells at 10 uM after 48 hrs by sulforhodamine B assay relative to control; type: functional
[26] = test system: OVCAR-3; experiment: Cytotoxicity against human OVCAR3 cells at 10 uM after 48 hrs by sulforhodamine B assay relative to control; type: functional
[27] = test system: HCT-116; experiment: Cytotoxicity against human HCT116 cells at 10 uM after 48 hrs by sulforhodamine B assay relative to control; type: functional
[28] = test system: SNB-75; experiment: Cytotoxicity against human SNB75 cells at 10 uM after 48 hrs by sulforhodamine B assay relative to control; type: functional
[29] = test system: SF-268; experiment: Cytotoxicity against human SF268 cells at 10 uM after 48 hrs by sulforhodamine B assay relative to control; type: functional
[30] = test system: A549; experiment: Cytotoxicity against human A549 cells at 10 uM after 48 hrs by sulforhodamine B assay relative to control; type: functional
[31] = test system: HT-29; experiment: Cytotoxicity against human HT-29 cells at 10 uM after 48 hrs by sulforhodamine B assay relative to control; type: functional
[32] = test system: UACC-62; experiment: Cytotoxicity against human UACC62 cells at 10 uM after 48 hrs by sulforhodamine B assay relative to control; type: functional
[33] = Cytotoxicity against human Hs 578T cells at 10 uM after 48 hrs by sulforhodamine B assay relative to control; type: functional
[34] = test system: MDA-MB-231; experiment: Cytotoxicity against human MDA-MB-231 cells at 10 uM after 48 hrs by sulforhodamine B assay relative to control; type: functional
[35] = test system: SW-620; experiment: Cytotoxicity against human SW620 cells at 10 uM after 48 hrs by sulforhodamine B assay relative to control; type: functional
[36] = test system: PC-3; experiment: Cytotoxicity against human PC3 cells at 10 uM after 48 hrs by sulforhodamine B assay relative to control; type: functional
[37] = test system: LOX IMVI; experiment: Cytotoxicity against human LOXIMVI cells at 10 uM after 48 hrs by sulforhodamine B assay relative to control; type: functional
[38] = test system: SK-MEL-5; experiment: Cytotoxicity against human SK-MEL-5 cells at 10 uM after 48 hrs by sulforhodamine B assay relative to control; type: functional
[39] = test system: SK-MEL-2; experiment: Cytotoxicity against human SK-MEL-2 cells at 10 uM after 48 hrs by sulforhodamine B assay relative to control; type: functional
[40] = test system: OVCAR-4; experiment: Cytotoxicity against human OVCAR4 cells at 10 uM after 48 hrs by sulforhodamine B assay relative to control; type: functional
[41] = test system: UO-31; experiment: Cytotoxicity against human UO31 cells at 10 uM after 48 hrs by sulforhodamine B assay relative to control; type: functional
[42] = test system: SK-MEL-28; experiment: Cytotoxicity against human SK-MEL-28 cells at 10 uM after 48 hrs by sulforhodamine B assay relative to control; type: functional
[43] = test system: NCI-H460; experiment: Cytotoxicity against human NCI-H460 cells at 10 uM after 48 hrs by sulforhodamine B assay relative to control; type: functional
[44] = test system: TK-10; experiment: Cytotoxicity against human TK10 cells at 10 uM after 48 hrs by sulforhodamine B assay relative to control; type: functional
[45] = test system: RXF 393; experiment: Cytotoxicity against human RXF393 cells at 10 uM after 48 hrs by sulforhodamine B assay relative to control; type: functional
[46] = test system: SNB-19; experiment: Cytotoxicity against human SNB19 cells at 10 uM after 48 hrs by sulforhodamine B assay relative to control; type: functional
[47] = test system: MDA-MB-468; experiment: Cytotoxicity against human MDA-MB-468 cells at 10 uM after 48 hrs by sulforhodamine B assay relative to control; type: functional
[48] = test system: UACC-257; experiment: Cytotoxicity against human UACC257 cells at 10 uM after 48 hrs by sulforhodamine B assay relative to control; type: functional
[49] = test system: NCI/ADR-RES; experiment: Cytotoxicity against human NCI/ADR-RES cells at 10 uM after 48 hrs by sulforhodamine B assay relative to control; type: functional
[50] = test system: Malme-3M; experiment: Cytotoxicity against human MALME-3M cells at 10 uM after 48 hrs by sulforhodamine B assay relative to control; type: functional
[51] = test system: IGROV-1; experiment: Cytotoxicity against human IGROV1 cells at 10 uM after 48 hrs by sulforhodamine B assay relative to control; type: functional
[52] = test system: SR; experiment: Cytotoxicity against human SR cells at 10 uM after 48 hrs by sulforhodamine B assay relative to control; type: functional
[53] = test system: NCI-H522; experiment: Cytotoxicity against human NCI-H522 cells at 10 uM after 48 hrs by sulforhodamine B assay relative to control; type: functional
[54] = test system: HL-60(TB); experiment: Cytotoxicity against human HL-60(TB) cells at 10 uM after 48 hrs by sulforhodamine B assay relative to control; type: functional
[55] = test system: KM12; experiment: Cytotoxicity against human KM12 cells at 10 uM after 48 hrs by sulforhodamine B assay relative to control; type: functional
[56] = test system: NCI-H322M; experiment: Cytotoxicity against human NCI-H322M cells at 10 uM after 48 hrs by sulforhodamine B assay relative to control; type: functional
[57] = test system: MDA-MB-435; experiment: Cytotoxicity against human MDA-MB-435 cells at 10 uM after 48 hrs by sulforhodamine B assay relative to control; type: functional
[58] = test system: CAKI-1; experiment: Cytotoxicity against human CAKI-1 cells at 10 uM after 48 hrs by sulforhodamine B assay relative to control; type: functional
[59] = test system: SF-295; experiment: Cytotoxicity against human SF295 cells at 10 uM after 48 hrs by sulforhodamine B assay relative to control; type: functional

## CN1CCN(CCC(=O)Nc2ccc3c(c2)C(=O)c2cc(NC(=O)CCN4CCN(C)CC4)ccc2-3)CC1
[1]
  Activity: 111.18%
[2]
  Activity: 101.48%
[3]
  Activity: 96.83%
[4]
  Activity: 112.6%
[5]
  Activity: 97.76%
[6]
  Activity: 95.72%
[7]
  Activity: 101.35%
[8]
  Activity: 99.19%
[9]
  Activity: 98.16%
[10]
  Activity: 104.62%
[11]
  Activity: 106.48%
[12]
  Activity: 100.57%
[13]
  Activity: 99.57%
[14]
  IC50: > 30 µM
[15]
  Activity: 102.94%
[16]
  Activity: 100.29%
[17]
  Activity: 105.74%
[18]
  inhibition: inactive
[19]
  Activity: 109.22%
[20]
  Activity: 111.08%
[21]
  Activity: 107.82%
[22]
  Activity: 108.32%
[23]
  Activity: 102.07%
[24]
  Activity: 94.59%
[25]
  Activity: 100.97%
[26]
  Activity: 116.35%
[27]
  Activity: 100.16%
[28]
  Activity: 77.89%
[29]
  Activity: 109.98%
[30]
  Activity: 106.9%
[31]
  Activity: 101.23%
[32]
  Activity: 104.21%
[33]
  Activity: 102.5%
[34]
  Activity: 115.67%
[35]
  Activity: 105.36%
[36]
  Activity: 104.35%
[37]
  Activity: 96.43%
[38]
  Activity: 107.35%
[39]
  Activity: 109.38%
[40]
  Activity: 99.91%
[41]
  Activity: 89.26%
[42]
  Activity: 96.67%
[43]
  Activity: 107.13%
[44]
  Activity: 99.67%
[45]
  Activity: 97.03%
[46]
  Activity: 105.99%
[47]
  Activity: 88.91%
[48]
  Activity: 103.02%
[49]
  Activity: 103.89%
[50]
  Activity: 98.05%
[51]
  Activity: 102.45%
[52]
  Activity: 92.06%
[53]
  Activity: 86.63%
[54]
  Activity: 103.58%
[55]
  Activity: 111.12%

## CCCNCC(=O)Nc1ccc2c(c1)C(=O)c1cc(NC(=O)CNCCC)ccc1-2
[1]
  Activity: 88.56%
[2]
  Activity: 54.46%
[3]
  Activity: 81.96%
[4]
  Activity: 68.94%
[5]
  Activity: 43.54%
[6]
  Activity: 42.23%
[7]
  Activity: 82.71%
[56]
  Activity: 55.32%
[8]
  Activity: 1.15%
[9]
  Activity: 104.17%
[57]
  Activity: 74.91%
[10]
  Activity: 115.75%
[11]
  Activity: 62.56%
[12]
  Activity: 82.05%
[13]
  Activity: 75.34%
[14]
  IC50: 5.46 µM
[15]
  Activity: 79.58%
[16]
  Activity: 49.16%
[17]
  Activity: 84.8%
[18]
  inhibition: inactive
[19]
  Activity: 70.78%
[20]
  Activity: 86.19%
[21]
  Activity: 97.53%
[22]
  Activity: 53.11%
[23]
  Activity: 100.55%
[24]
  Activity: 41.29%
[25]
  Activity: 72.93%
[26]
  Activity: 101.73%
[27]
  Activity: 34.22%
[28]
  Activity: 90.2%
[29]
  Activity: 81.33%
[30]
  Activity: 44.21%
[31]
  Activity: 7.11%
[32]
  Activity: 108.2%
[33]
  Activity: 109.04%
[34]
  Activity: 53.48%
[35]
  Activity: 33.33%
[36]
  Activity: 63.47%
[37]
  Activity: 63.5%
[38]
  Activity: 93.78%
[39]
  Activity: 114.94%
[40]
  Activity: 65.9%
[41]
  Activity: 59.44%
[42]
  Activity: 91.46%
[43]
  Activity: 47.28%
[44]
  Activity: 101.22%
[45]
  Activity: 64.2%
[46]
  Activity: 96.69%
[47]
  Activity: 60.47%
[48]
  Activity: 113.51%
[49]
  Activity: 90.61%
[50]
  Activity: 111.89%
[51]
  Activity: 67.45%
[58]
  Activity: 84.88%
[52]
  Activity: 26.93%
[53]
  Activity: 63.92%
[54]
  Activity: 78.59%
[59]
  Activity: 78.31%
[55]
  Activity: 65.12%
